Data from US20100068299A1 (priority 2003, published 2010).

Assay: Reversal of formed copper phosphite precipitate by added agent (Example 1)
Format: physicochemical
Conditions: agent added at final concentration of 10 mM; 0.6 g/l Cu(OH)2, 14.4 g/l KH2PO3, 1 g/l K2CO3, pH 5.5

O=C([O-])CN(CCN(CC(=O)[O-])CC(=O)O)CC(=O)O.[Na+].[Na+] [disodium EDTA]
effect on formed copper phosphite precipitate: immediately disappeared
